PubChem BioAssay (NCI)
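Step 1: Grow cells in 96-well plates. Step 2: Expose to compound for 48 hours at 5 concentrations. Step 3: Interpolate endpoints linearly; if unreached, use highest concentration. Definition used: TGI = concentration required for complete inhibition of growth.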

Tests used:
Assay in all cases: DTP human tumour cell line panel, 48 h
[1] = test system: A549 NSCLC
[2] = test system: HCT-15 colon
[3] = test system: MALME-3M melanoma
[4] = test system: NCI-H226 lung
[5] = test system: NCI-H522 lung
[6] = test system: BT-549 breast
[7] = test system: 786-0 renal
[8] = test system: SR leukemia
[9] = test system: UO-31 renal
[10] = test system: M14 melanoma
[11] = test system: HS 578T breast
[12] = test system: SNB-19 CNS
[13] = test system: T-47D breast
[14] = test system: MCF7 breast
[15] = test system: DU-145 prostate
[16] = test system: NCI/ADR-RES ovarian
[17] = test system: ACHN renal
[18] = test system: EKVX NSCLC
[19] = test system: SN12C renal
[20] = test system: HT29 colon
[21] = test system: SK-OV-3 ovarian
[22] = test system: HOP-62 NSCLC
[23] = test system: OVCAR-4 ovarian
[24] = test system: KM12 colon
[25] = test system: CAKI-1 renal
[26] = test system: HCC-2998 colon
[27] = test system: PC-3 prostate
[28] = test system: TK-10 renal
[29] = test system: NCI-H23 lung
[30] = test system: MDA-MB-435
[31] = test system: CCRF-CEM leukemia
[32] = test system: OVCAR-8 ovarian
[33] = test system: RXF 393 renal
[34] = test system: U251 CNS
[35] = test system: UACC-257 melanoma
[36] = test system: MDA-N
[37] = test system: HCT-116 colon
[38] = test system: SNB-75 CNS
[39] = test system: RPMI-8226 leukemia
[40] = test system: MOLT-4 leukemia
[41] = test system: SF-268 CNS
[42] = test system: SK-MEL-5 melanoma
[43] = test system: A498 renal
[44] = test system: MDA-MB-231 breast
[45] = test system: UACC-62 melanoma
[46] = test system: SW-620 colon
[47] = test system: OVCAR-3 ovarian
[48] = test system: IGROV1 ovarian
[49] = test system: SK-MEL-28 melanoma
[50] = test system: SF-295 CNS
[51] = test system: SK-MEL-2 melanoma
[52] = test system: K-562 leukemia
[53] = test system: OVCAR-5 ovarian
[54] = test system: COLO 205 colon
[55] = test system: HOP-92 NSCLC
[56] = test system: SF-539 CNS
[57] = test system: HL-60(TB) leukemia
[58] = test system: LOX IMVI melanoma
[59] = test system: NCI-H460 lung

Measured: TGI

COc1cc2c(cc1O)C(=O)O[C@@H]1CC=C3CCN(C)[C@H]3[C@H]21
not listed: [54] | [55] | [56] | [57] | [58] | [59]
> 25 µM: all other assays above

O=C(CCN1CCCC1)c1ccc(Oc2ccc(F)cc2)cc1
56.7 µM: [54]
74.4 µM: [33]
43.3 µM: [40]
37.8 µM: [57]
32.3 µM: [14]
90.9 µM: [24]
99.5 µM: [10]
31.8 µM: [7]
30.1 µM: [25]
46.7 µM: [31]
41.5 µM: [55]
not listed: [5] | [8] | [13] | [39] | [43]
> 100 µM: all other assays above

Cn1c(N)c(/C=C/C(=O)Oc2ccccc2)c(=O)n(C)c1=O
63.8 µM: [25]
93 µM: [55]
66.5 µM: [38]
40.9 µM: [22]
93.6 µM: [50]
not listed: [8]
> 100 µM: all other assays above
